The target of the assay is hP2X3 (human purinergic P2X receptor subtype 3) (Homo sapiens (Human), UniProt P56373). Kind of assay: FLIPR calcium assay, hP2X3 expressed in HEK293 cells. The format is cell-based. Particulars: read-out: P2X3 IC50.
Where [1] appears, read: HEK293 cells expressing hP2X3, agonist BZ-ATP 2.5 μM, class symbols.

Like-named read-outs stand apart in the source and are kept apart here.

hP2X3 (human purinergic P2X receptor subtype 3), sequence (P56373 whole entry): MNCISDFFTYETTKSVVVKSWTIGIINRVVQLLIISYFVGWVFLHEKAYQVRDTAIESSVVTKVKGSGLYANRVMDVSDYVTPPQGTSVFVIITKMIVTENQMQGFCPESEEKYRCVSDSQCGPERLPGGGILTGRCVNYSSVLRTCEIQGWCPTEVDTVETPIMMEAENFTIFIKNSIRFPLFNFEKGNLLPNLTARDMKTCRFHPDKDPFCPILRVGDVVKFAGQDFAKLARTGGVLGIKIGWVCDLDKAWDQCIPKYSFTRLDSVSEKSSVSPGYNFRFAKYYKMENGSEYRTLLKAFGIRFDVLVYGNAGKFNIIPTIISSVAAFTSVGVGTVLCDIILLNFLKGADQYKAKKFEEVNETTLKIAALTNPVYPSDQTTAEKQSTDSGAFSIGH

In general, IC50 refers to the concentration at which inhibition is half-maximal. Turning to `COC(=O)N1CCO[C@@H](Cc2c(-c3cnc(NC(C)=O)[nH]3)nc3cc(C)ccn23)C1` [Compound 1], the IC50 under setting [1] fell in the range of 200 to 5000 nM. Same read-out and setting: to `CNC(=N)c1cc(F)c(-c2nc3cc(C)ccn3c2C[C@H]2CN(C(=O)OC)CCO2)c(F)c1` [Compound 8, methyl (S)-2-((2-(2,6-difluoro-4-(N-methylcarbamimidoyl)phenyl)-7-methylimidazo[1,2-a]pyridin-3-yl)methyl)morpholine-4-carboxylate] belongs 200 to 5000 nM; to `COC(=O)N1CCO[C@@H](Cc2c(-c3c(F)cc(-c4nccn4C)cc3F)nc3cc(C)ccn23)C1` [Compound 9, methyl (S)-2-((2-(2,6-difluoro-4-(1-methyl-1H-imidazol-2-yl)phenyl)-7-methylimidazo[1,2-a]pyridin-3-yl)methyl)morpholine-4-carboxylate], 200 to 5000 nM. Still for that read-out and setting: the same measure for `COC(=O)N1CCO[C@@H](Cc2c(-c3c(F)cc(C(C)=O)cc3F)nc3cc(C)ccn23)C1` [Compound 14, methyl (S)-2-((2-(4-acetyl-2,6-difluorophenyl)-7-methylimidazo[1,2-a]pyridin-3-yl)methyl)morpholine-4-carboxylate]: 200 to 5000 nM. Consider `COC(=O)N1CCO[C@@H](Cc2c(-c3c(F)cc(-c4ccon4)cc3F)nc3cc(C)ccn23)C1` [Compound 16, methyl (S)-2-((2-(2,6-difluoro-4-(isoxazol-3-yl)phenyl)-7-methylimidazo[1,2-a]pyridin-3-yl)methyl)morpholine-4-carboxylate], for which the concentration for half-maximal inhibition (IC50) fell in the range of 10 to 50 nM. Turning to `CNC(=O)c1cc(F)c(-c2nc3cc(C)ccn3c2CC(N)=O)c(F)c1` [Compound 19, 4-(3-(2-amino-2-oxoethyl)-7-methylimidazo[1,2-a]pyridine)-3,5-difluorobenzoylmethylamine], under setting [1], the 50% inhibitory concentration (IC50) lay in the range of 200 to 5000 nM. On to `CCOC(=O)N1CCO[C@@H](Cc2c(C(=O)Nc3cc(F)cc(F)c3)nc3cc(C)ccn23)C1` [Compound 20], for which, under setting [1], the 50% inhibitory concentration (IC50) lay in the range of 200 to 5000 nM. On the same count and under the same terms, to `CNC(=O)c1ccc(-c2nc3cc(C)ccn3c2C[C@H]2CN(C(=O)OC)CCO2)s1` [Compound 21, methyl (S)-2-((7-methyl-2-(5-(methylcarbamoyl)thiophen-2-yl)imidazo[1,2-a]pyridin-3-yl)methyl)morpholine-4-carboxylate] belongs 200 to 5000 nM; to `CNC(=O)c1coc(-c2nc3cc(C)ccn3c2C[C@H]2CN(C(=O)OC)CCO2)c1F` [Compound 22], 200 to 5000 nM; to `CNC(=O)c1csc(-c2nc3cc(C)ccn3c2C[C@H]2CN(C(=O)OC)CCO2)c1F` [Compound 23], 200 to 5000 nM. Still for that read-out and setting: the same measure for `CNC(=O)c1c[nH]c(-c2nc3cc(C)ccn3c2C[C@H]2CN(C(=O)OC)CCO2)c1F` [Compound 24]: 200 to 5000 nM. Turning to `COC(=O)N1CCO[C@@H](Cc2c(-c3c(F)cc(N4C(=O)C=CC4=O)cc3F)nc3cc(C)ccn23)C1` [Compound 28, methyl (S)-2-((2-(2,6-difluoro-4-(2,5-dioxo-2,5-dihydropyrrol-1-yl)phenyl)-7-methylimidazo[1,2-a]pyridin-3-yl)methyl)morpholine-4-carboxylate], the 50% inhibitory concentration (IC50) was 10 to 50 nM. Same read-out and setting: the same measure for `COC(=O)N1CCO[C@@H](Cc2c(C3CCN(C(C)=O)CC3)nc3cc(C)ccn23)C1` [Compound 30, methyl (S)-2-((2-(1-acetylpiperidin-4-yl)-7-methylimidazo[1,2-a]pyridin-3-yl)methyl)morpholine-4-carboxylate]: 10 to 50 nM. On to `CNC(=O)c1cc(F)c(-c2nc3cc(C)ccn3c2CN2CCNC(=O)C2)c(F)c1` [Compound 31], for which, under setting [1], the IC50 was 200 to 5000 nM.

`CNC(=O)c1cc(F)c(-c2nc3cc(C)ccn3c2CN2CCN(C(=O)OC)CC2)c(F)c1` [Compound 32]: under setting [1], the IC50 fell in the range of 200 to 5000 nM.

Take `COC(=O)N1CCO[C@@H](Cc2c(-c3c(F)cc(-c4nc(Cl)c[nH]4)cc3F)nc3cc(C)ccn23)C1` [Compound 34, methyl (S)-2-((2-(4-(4-chloro-1H-imidazol-2-yl)-2,6-difluorophenyl)-7-methylimidazo[1,2-a]pyridin-3-yl)methyl)morpholine-4-carboxylate]: the 50% inhibitory concentration (IC50) is under 10 nM. As to `COC(=O)N1CCO[C@@H](Cc2c(-c3c(F)cc(O)cc3F)nc3cc(C)ccn23)C1` [Compound 35, methyl (S)-2-((2-(2,6-difluoro-4-hydroxyphenyl)-7-methylimidazo[1,2-a]pyridin-3-yl)methyl)morpholine-4-carboxylate], the IC50 under setting [1] was 200 to 5000 nM. Same read-out and setting: the same measure for `CNC(=O)Oc1cc(F)c(-c2nc3cc(C)ccn3c2C[C@H]2CN(C(=O)OC)CCO2)c(F)c1` [Compound 36, methyl (S)-2-((2-(2,6-difluoro-4-(methylcarbamoyloxy)phenyl)-7-methylimidazo[1,2-a]pyridin-3-yl)methyl)morpholine-4-carboxylate]: 10 to 50 nM. On to `COC(=O)N1CCO[C@@H](Cc2c(-c3c(F)cc(-c4nc(C(F)(F)F)c[nH]4)cc3F)nc3cc(C)ccn23)C1` [Compound 37, methyl (S)-2-((2-(2,6-difluoro-4-(4-trifluoromethyl-1H-imidazol-2-yl)phenyl)-7-methylimidazo[1,2-a]pyridin-3-yl)methyl)morpholine-4-carboxylate], for which the IC50 was under 10 nM. For the molecule `COC(=O)N1CCO[C@@H](Cc2c(-c3c(F)cc(-c4nc(C#N)c[nH]4)cc3F)nc3cc(C)ccn23)C1` [Compound 38, methyl (S)-2-((2-(2,6-difluoro-4-(4-cyano-1H-imidazol-2-yl)phenyl)-7-methylimidazo[1,2-a]pyridin-3-yl)methyl)morpholine-4-carboxylate], the IC50 is under 10 nM.

`CNC(=O)c1cc(F)c(-c2[nH]c3cc(C)ccc3c2C[C@H]2CN(C(=O)OC)CCO2)c(F)c1` [Compound 39]: the IC50 under setting [1] was 200 to 5000 nM. On the same count and under the same terms, to `CNC(=O)c1cc(F)c(-c2cc3cc(C)ccc3n2C[C@H]2CN(C(=O)OC)CCO2)c(F)c1` [Compound 40, methyl (S)-2-((2-(2,6-difluoro-4-(methylcarbamoyl)phenyl)-5-methyl-1H-indol-1-yl)methyl)morpholine-4-carboxylate] belongs 200 to 5000 nM; to `CNC(=O)c1cc(F)c(C2=CC3C=C(C)C=CN3N2C[C@H]2CN(C(=O)OC)CCO2)c(F)c1` (stereo partly drawn) [Compound 41], 200 to 5000 nM. In the case of `CNC(=O)c1cc(F)c(-c2nc3cc(C)ncn3c2C[C@H]2CN(C(=O)OC)CCO2)c(F)c1` [Compound 42, methyl (S)-2-((2-(2,6-difluoro-4-(methylcarbamoyl)phenyl)-7-methylimidazo[1,2-c]pyrimidin-3-yl)methyl)morpholine-4-carboxylate], the IC50 is under 10 nM. In the case of `CNS(=O)(=O)c1cc(F)c(-c2nc3cc(C)ccn3c2C[C@H]2CN(C(=O)OC)CCO2)c(F)c1` [Compound 43, methyl (S)-2-((2-(2,6-difluoro-4-(N-methylsulfamoyl)phenyl)-7-methylimidazo[1,2-a]pyridin-3-yl)methyl)morpholine-4-carboxylate], the IC50 was under 10 nM.

For the molecule `CNC(=O)c1cc(F)c(-c2nc3n(c2C[C@H]2CN(C(=O)OC)CCO2)CCC(C)C3)c(F)c1` (stereo partly drawn) [Compound 44, methyl (2S)-2-((2-(2,6-difluoro-4-(methylcarbamoyl)phenyl)-7-methyl-5,6,7,8-tetrahydroimidazo[1,2-a]pyridin-3-yl)methyl)morpholine-4-carboxylate], the 50% inhibitory concentration (IC50) was under 10 nM. As to `COC(=O)N1CCO[C@@H](Cc2c(-c3c(F)cc(N4CCN(C)CC4=O)cc3F)nc3cc(C)ccn23)C1` [Compound 45, methyl (S)-2-((2-(2,6-difluoro-4-(4-methyl-2-oxopiperazin-1-yl)phenyl)-7-methylimidazo[1,2-a]pyridin-3-yl)methyl) morpholine-4-carboxylate], the IC50 under setting [1] is 200 to 5000 nM.

For `CNC(=O)c1cc(F)c(-c2nc3cc(C)ccn3c2C[C@H]2CN(C(=O)OC)CCN2)c(F)c1` [Compound 46], the 50% inhibitory concentration (IC50) under setting [1] fell in the range of 200 to 5000 nM.

For `CNC(=O)c1cc(F)c(-c2nc3cc(C)ccn3c2CN2CCOCC2=O)c(F)c1` [Compound 47, 3,5-difluoro-N-methyl-4-(7-methyl-3-((3-oxo-4-morpholinyl)methyl)imidazo[1,2-a]pyridin-2-yl)benzamide], under setting [1], the IC50 fell in the range of 200 to 5000 nM. Take `CNC(=O)c1cc(F)c(-c2nc3cc(C)ccn3c2CN2CCNCC2=O)c(F)c1` [Compound 48, (S)-2-((2-(2,6-difluoro-4-(methylcarbamoyl)phenyl)-7-methylimidazo[1,2-a]pyridin-3-yl)methyl)-2-carbonyl-piperazine]: the 50% inhibitory concentration (IC50) is 50 to 200 nM. In the case of `COC(=O)c1cc(F)c(-c2nc3cc(C)ccn3c2C[C@H]2CN(C(=O)OC)CCO2)c(F)c1` [Compound 49, methyl (S)-2-((2-(2,6-difluoro-4-carbomethoxyphenyl)-7-methylimidazo[1,2-a]pyridin-3-yl)-methyl)morpholine-4-carboxylate], the IC50 is under 10 nM. In the case of `CCOC(=O)c1cn(-c2cc(F)c(-c3nc4cc(C)ccn4c3C[C@H]3CN(C(=O)OC)CCO3)c(F)c2)cn1` [Compound 51, methyl (S)-2-((2-(4-(4-(carbethoxy<ethoxycarbonyl>)-1H-imidazol-1-yl)-2,6-difluorophenyl)-7-methylimidazo[1,2-a]pyridin-3-yl)methyl)morpholine-4-carboxylate], the IC50 lay in the range of 50 to 200 nM. On to `CNC(=O)c1cc(F)c(-c2oc3cc(C)ncc3c2C[C@H]2CN(C(=O)OC)CCO2)c(F)c1` [Compound 55, methyl (S)-2-((2-(2,6-difluoro-4-(methylcarbamoyl)phenyl)-6-methylfurano[3,2-c]pyridin-3-yl)methyl)morpholine-4-carboxylate], for which the IC50 was under 10 nM.

`CNC(=O)c1cc(F)c(-c2oc3nc(C)ccc3c2C[C@H]2CN(C(=O)OC)CCO2)c(F)c1` [Compound 56, methyl (S)-2-((2-(2,6-difluoro-4-(methylcarbamoyl)phenyl)-6-methylfurano[2,3-b]pyridin-3-yl)methyl)morpholine-4-carboxylate]: the half-maximal inhibitory concentration (IC50) was under 10 nM.

Regarding `CNC(=O)c1cc(F)c(-c2nn3cc(C)ccc3c2C[C@H]2CN(C(=O)OC)CCO2)c(F)c1` [Compound 57], the IC50 is under 10 nM. For `CNC(=O)c1cc(F)c(-c2nc3n(c2C[C@H]2CN(C(=O)OC)CCO2)CCN(C)C3)c(F)c1` [Compound 62], the half-inhibitory concentration (IC50) under setting [1] fell in the range of 200 to 5000 nM.

Values taken from patent US20240034729A9, “HETEROCYCLIC COMPOUND, INTERMEDIATE, PREPARATION METHOD THEREFOR AND APPLICATION THEREOF” (WUHAN LL SCIENCE AND TECHNOLOGY DEVELOPMENT CO., LTD., priority 2018, published 2024).
